# Measured values: US20220380341A1, “INHIBITORS OF HIV-1 NEF FOR THE TREATMENT OF HIV DISEASE” (priority 2018, published 2022)
# “And” between values parts separate entries of the source, which are not always exact repeats. Identical values can stand only once. Like-named read-outs stand apart in the source and are kept apart here.
# Experiments:
# HIV-1NL4-3 = assay: HIV-1 infectivity assay in TZM-bl reporter cell line (LTR-luciferase, 48 h); type: cell-based; settings: for inhibition at 1 µM: Human immunodeficiency virus 1, TZM-bl
# Procedure, shortened: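 Luciferase read-out 48 h post-infection; compound at 1 μM during HIV-1NL4-3 infection of TZM-bl cells. Percent inhibition scaled to DMSO wild-type virus (0%) and DMSO Nef-defective virus (100% of Nef-dependent effect). Viability checked separately in uninfected cells by Cell Titer Blue.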
# TZM-bl cell line = type: cell-based; settings: human, 1 μM
# Procedure, shortened: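 Read-out is luciferase from an integrated HIV-1 LTR reporter in TZM-bl cells, 48 h after HIV-1NL4-3 infection in the presence of 1 μM compound. Scale set by DMSO-treated wild-type-infected cells (0%) and Nef-defective virus (100% Nef-dependent effect). Cell Titer Blue measures cytotoxicity without virus.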
# HIV-1 NefNL4-3 = HIV-1 NefNL4-3 (Human immunodeficiency virus type 1 group M subtype B, UniProt P03406, A33V/T15A/T51N/V11I); assay: Surface plasmon resonance binding to recombinant full-length Nef (NL4-3); settings: for RU30/RUNef (extent of binding): response units at 30 μM relative to Nef immobilized on the SPR chip
# [1] = 48 h, Table 1, TZM-bl cells, 1 μM, 48 h, 100% = Nef-defective HIV-1, read-out: HIV-1 Infectivity % Inhibition Norm. to Δ-Nef @ 1 μM
# [2] = 1.0 μM, TZM-bl reporter cell line, Table 4, read-out: % Infectivity Inhibition
# [3] = KD, M, Table 4, SPR fit 1:1 Langmuir, KD = koff/kon
# [4] = Table 4, 1:1 Langmuir fit, T = 1/koff
SMILES,inhibition at 1 µM (HIV-1NL4-3; [1]),Percent Viability @ 1 μM (TZM-bl cells) (TZM-bl cell line),Kd (HIV-1 NefNL4-3),"Nef NL4-3 Binding, SPR 1:1 or 2-site fitting KD1 (HIV-1 NefNL4-3; Table 1, 1:1 Langmuir fit where the KD2 cell says '1 to 1 fitting', else 2-site fit)",inhibition at 1 µM (HIV-1NL4-3; [2]),% Cell Viability (TZM-bl cell line),Kd (HIV-1 NefNL4-3; [3]),"T, minutes (residence time) (HIV-1 NefNL4-3; [4])",RU30/RUNef (extent of binding) (HIV-1 NefNL4-3),"HIV-1 Infectivity % Inhibition Norm. to Δ-Nef @ 1 μM (HIV-1NL4-3; Table 1, TZM-bl cells, 1 μM, 48 h, 100% = Nef-defective HIV-1)","Kd (HIV-1 NefNL4-3; KD, M, Table 4, SPR fit 2-step induced fit, KD = koff/kon × koff2/(koff2 + kon2))","Kd (HIV-1 NefNL4-3; Nef NL4-3 Binding, SPR 1:1 or 2-site fitting KD2, Table 1, 2-site fit, second component)","T, minutes (residence time) (HIV-1 NefNL4-3; Table 4, 2-step induced fit, T = 1/koff2)","Kd (HIV-1 NefNL4-3; read-out: Nef NL4-3 Binding, SPR 1:1 or 2-site fitting KD2, Table 1, 2-site fit, second component)"
"CS(=O)(=O)c1cccc(-c2nn(-c3nc4cccnc4[nH]3)c(O)c2CCc2ccc(F)cc2)c1 [Compound I-311, 4-[2-(4-fluorophenyl)ethyl]-1-{3H-imidazo[4,5-b]pyridin-2-yl}-3-(3-methanesulfonylphenyl)-1H-pyrazol-5-ol]",29.8%,94.5%,1010 nM,,,,,,,,,,,
"Oc1c(CC2CCOCC2)c(C2CCOCC2)nn1-c1nc2cccnc2[nH]1 [Compound I-312, 1-{3H-imidazo[4,5-b]pyridin-2-yl}-3-(oxan-4-yl)-4-[(oxan-4-yl)methyl]-1H-pyrazol-5-ol]",-33.7%,100.1%,,No Interaction,,,,,,,,,,
"Oc1c(CC2CCOCC2)c(-c2ccc(F)cc2)nn1-c1nc2cccnc2[nH]1 [Compound I-313, 3-(4-fluorophenyl)-1-{3H-imidazo[4,5-b]pyridin-2-yl}-4-[(oxan-4-yl)methyl]-1H-pyrazol-5-ol]",33.2%,96.7%,480 nM,,33.2%,96.7%,480 nM,2.92E + 01 minutes,5.15E- 03,,,,,
"Oc1c(CCc2ccc(F)cc2)c(C2CCOCC2)nn1-c1nc2cccnc2[nH]1 [Compound I-314, 4-[2-(4-fluorophenyl)ethyl]-1-{3H-imidazo[4,5-b]pyridin-2-yl}-3-(oxan-4-yl)-1H-pyrazol-5-ol]",-1%,100.1%,705 nM,,0%,100%,705 nM,1.79E + 01 minutes,2.97E- 03,,,,,
"Oc1c(CC2CCOCC2)c(C2CC2)nn1-c1nc2cccnc2[nH]1 [Compound I-315, 3-cyclopropyl-1-{3H-imidazo[4,5-b]pyridin-2-yl}-4-[(oxan-4-yl)methyl]-1H-pyrazol-5-ol]",28.5%,100.6%,1880 nM,,,,,,,,,,,
"Oc1c(CC2CCOCC2)c(C2CC(F)(F)C2)nn1-c1nc2cccnc2[nH]1 [Compound I-316, 3-(3,3-difluorocyclobutyl)-1-{3H-imidazo[4,5-b]pyridin-2-yl}-4-[(oxan-4-yl)methyl]-1H-pyrazol-5-ol]",,,,,32.8%,99.7%,4490 nM,5.19E + 00 minutes,1.19E- 03,,,,,
"Cn1c(-n2nc(-c3ccc(C(F)(F)F)cc3)c(CCc3ccc(F)cc3)c2O)nc2ccccc21 [Compound I-401, 4-[2-(4-fluorophenyl)ethyl]-1-(1-methyl-1H-1,3-benzodiazol-2-yl)-3-[4-(trifluoromethyl)phenyl]-1H-pyrazol-5-ol]",,,1890 nM and 237 nM,,99.6%,86.4%,,,2.01E- 02,52.3%,78400 nM,2470 nM,1.45E + 03 minutes,18100 nM
"Cn1c(-n2nc(-c3ccc(S(C)(=O)=O)cc3)c(CCc3ccc(F)cc3)c2O)nc2ccccc21 [Compound I-403, 4-[2-(4-fluorophenyl)ethyl]-3-(4-methanesulfonylphenyl)-1-(1-methyl-1H-1,3-benzodiazol-2-yl)-1H-pyrazol-5-ol]",4.1%,99.9%,2400 nM,,4.1%,99.9%,2400 nM,3.63E + 00 minutes,2.88E- 03,,,,,
"CCOC(=O)c1nn(-c2nc3ccccc3[nH]2)c(O)c1CCc1ccc(F)cc1 [Compound I-404, ethyl 1-(1H-1,3-benzodiazol-2-yl)-4-[2-(4-fluorophenyl)ethyl]-5-hydroxy-1H-pyrazole-3-carboxylate]",1.3%,100.5%,128 nM,,,,,,,,,,,
